Results reported in US20110039333A1, “DEFINED CONDITIONS FOR HUMAN EMBRYONIC STEM CELL CULTURE AND PASSAGE” (UNIVERSITY OF SOUTHERN CALIFORNIA, priority 2009, published 2011).

Tests used:
hESC [1] = experiment: Xeno-free, feeder-free hESC culture (minimal medium development); format: cell-based, human; settings: for maintenance of hESCs, Wnt ligand replaced by GSK-3 inhibitor: ID-8 containing medium
Procedure: (§1) For xeno-free, feeder-free culture, the cells were passaged into 2 μg/cm^2 human Fibronectin (Sigma), 10-20 μg/cm^2 human Laminin (Sigma) and 10 μg/cm^2 human Vitronectin (Invitrogen)-coated culture dishes and cultured in DMEM/F-12 supplement with L-glutamine, a non-essential amino acid, ITS, 20-25 ng/ml Wnt3a and 500 nM ID-8, and with or without 4 ng/ml FGF2. The culture medium was changed daily. Some of colonies became detached from the edge region 5 to 7 days after culturing, and then cells were treated with 0.5 mg/ml GRGDTP peptides (AnaSpec) or 1 μg/ml Echistatin (Sigma) and incubated at 37° C. for 15-45 minutes until almost all of the colony starts to detach from the edge region. The colonies were detached and partially dissociated into clumps by gentle pipetting, and then the clumps were washed with culture medium, collected by centrifugation and seeded on new dishes as 1 to 2 split ratio.
The development of a xeno-free, feeder-free hESC culture system using ID-8 and Wnt activation was investigated. After extensive investigation, the inventors determined that the minimal media required to maintain hESC proliferation and pluripotency consisted of DMEM/F-12 with bFGF (4 ng/ml), Wnt3a (25 ng/ml), ID-8 (0.5 μM) and Insulin-Transferrin-Selenium (ITS). […] The inventors next sought to replace the Wnt ligand with several small molecule GSK-3 inhibitors, BIO (11), CHIR99021 (22) and Kenpaullone (23) in ID-8 containing medium with or without bFGF. […] However, in contrast to Wnt ligand containing medium, hESCs became unstable after few passages, subsequently stabilized and maintained pluripotent cores were surrounded with spontaneously differentiated cells (FIG. 5). Under these conditions, manually selection of undifferentiated hESC colonies from the surrounding cells was required at every passage to maintain pluripotent cultures.
(§2) Initially, cells were maintained on Matrigel, a complex animal derived ECM. However, it would be advantageous to use a defined xeno-component-free ECM. […] Because of the extremely low level of protein in these cultures (i.e. no albumin and matrigel), the hESCs are extremely sensitive to damage caused by the dissociation enzymes normally used for passaging. […] To develop a compatible passaging process, the inventors investigated several integrin antagonists.

HES2 cells = experiment: Clonal proliferation assay, HES2 cells in MEF-CM; format: cell-based, human; settings: for effect on hESC survival, self-renewal and differentiation: supplement in MEF-CM, colony morphology
Procedure: The clonal proliferation assay was described previously. Briefly, the hES cells in feeder-free culture were dissociated completely with 0.05% trypsin-EDTA.(Invitrogen), and are seeded at 10^4 cells/well in Matrigel-coated 6-well culture plates and cultured in MEF-conditioned medium. Various concentration of Wnt3a (purified in our laboratory or purchased from Peprotech), IQ-1, ID-8 and/or ICG-001 (all three chemicals were synthesized in our laboratory), were supplemented into the culture media at the onset of seeding, then continuously until the end of culturing. For all assays, the cell and colony morphology were examined under microscope, and the replating efficiency was examined by counting the number of colonies after 7 days of culture.
For quantitative PCR analysis, total RNA was isolated from hESCs cultured in feeder-free condition with or without Wnt3a and Id-8 using RNeasy micro kit (Qiagen). RT was performed with Omniscript (Qiagen) and quantitative RT-PCR was then performed, using each gene-specific primer/probe mix (TaqMan Gene Expression Assays), TaqMan 2× Master Mix, and ABI PRISM 7900 Sequence Detection system (Applied Biosystems, CA) according manufacture's protocol. The PCR data was analyzed by delta/delta OT method and normalized with PPIA expression.
The hESC colonies were fixed with 4% paraformaldehyde, and alkaline phosphatase (ALP) activity was determined with a Vector Blue Alkaline Phosphatase Substrate Kit (Vector Laboratories, CA). Immunostaining was carried out with the following primary antibodies: TRA-1-60 and TRA-1-80 (Santa Cruz Biotechnology, CA), anti-stage specific embryonic antigen (SSEA)-3 and -4 (Developmental Studies Hybridoma Bank at the University of Iowa), anti-OCT-3 (clone C-10, Santa Cruz Biotechnology, CA), or goat anti-Nanog (R&D systems, MN). Then, samples were incubated with Alexa Fluor 488- or 594-conjugated (Molecular Probes, NY), then detected with indirect immunofluorscence microscopy.
The effects of canonical Wnt ligand, Wnt3a and several small molecule Wnt signaling modulators in a clonal proliferation assay were investigated first (9) (FIG. 3A). When HES2 cells (2) were dissociated into single cells and seeded on Matrigel-coated plates in mouse embryonic fibroblast-conditioned medium (MEF-CM)(20), the colony forming efficiency was ˜0.6% (replating efficiency: colony number/seeded cell number). Supplementation with Wnt3a enhanced colony formation (˜1% at 100 ng/ml). The colonies were larger and consisted of more cells. […] ID-8, which was identified in the same screen as IQ-1 (21), also enhances the β-catenin/CBP association and increased hESC survival (˜1.1% at 0.5 μM). […] To examine the scope of this effect in hESC, clonal proliferation assays were performed with the additional hESC lines, HES3 (2) and H9 (1) (FIG. 3H).

hESC [2] = experiment: Passaging by integrin antagonists (colony detachment); format: cell-based, human; settings: xeno-free medium, FLV-coated dishes
Procedure: as §1, §2

DYRK4 = biological target: T1, DYRK4 (Homo sapiens, UniProt Q9NR20); experiment: ID-8 pull-down, western blotting with DYRK family antibodies; format: binding; settings: western blotting of precipitated proteins
T1 construct: endogenous in cells
T1 sequence (Q9NR20 1-520): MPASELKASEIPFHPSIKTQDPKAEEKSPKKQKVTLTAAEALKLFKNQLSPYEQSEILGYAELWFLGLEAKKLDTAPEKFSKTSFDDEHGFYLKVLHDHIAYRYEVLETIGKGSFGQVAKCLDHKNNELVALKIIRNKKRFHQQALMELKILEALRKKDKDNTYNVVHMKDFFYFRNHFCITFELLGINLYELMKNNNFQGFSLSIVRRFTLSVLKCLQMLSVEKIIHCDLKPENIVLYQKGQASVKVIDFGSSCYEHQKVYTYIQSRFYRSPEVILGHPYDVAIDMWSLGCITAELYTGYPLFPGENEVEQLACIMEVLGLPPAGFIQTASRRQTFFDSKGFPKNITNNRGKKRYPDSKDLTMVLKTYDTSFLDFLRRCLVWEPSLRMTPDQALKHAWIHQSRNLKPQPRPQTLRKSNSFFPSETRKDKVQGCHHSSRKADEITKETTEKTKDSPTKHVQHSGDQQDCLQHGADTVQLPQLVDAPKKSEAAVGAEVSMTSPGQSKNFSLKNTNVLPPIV
Procedure: (§3) The cells were washed twice with 5 mL of ice-old PBS and scraped using 1 mL of PBS containing protease inhibitor cocktail (Calbiochem 539137). The cells were collected by centrifugation and the cell pellet was frozen and stocked with liquid nitrogen. Total 2 g of cell pellet was thawed on ice and then suspended in 20 mL of chilled M-Per (Pierce 78501) buffer containing 1 mM DTT and the protease inhibitor cocktail. The cell suspension was mixed and lysed on a nutator (BD Diagnostics) for 30 minutes at 4° C. The lysate was then centrifuged at 10,000 rpm for 30 minutes at 4° C., and the supernatant was divided into two equal aliquots in 50 mL centrifuge tubes. […]
(§4) After pre-treatment with free competitor ID-8 or DMSO control, the streptayidin-sepharose bound with biotinylated ID-8 was applied on the lysates. […] The specific bands lost by competitor free ID-8 was analyzed by LC/MS (LTQ-XL, Thermo Scientific).
(§5) The elution was also analyzed by or western blotting with specific antibodies against DYRK1a (Cell Signaling 2771), DYRK2 (Abeam ab37912), DYRK3 (Santa Cruz sc-66868), DYRK4 (Abeam ab37911), or HIP2K (Santa Cruz sc-100383).
(§6) ID-8 (FIG. 4A) can enhance β-catenin/CBP-mediated transcription, however, its direct molecular target(s) remained unidentified. […] To confirm this, the inventors designed miRNA to target the DYRK family and evaluated them after transfection by immunoblotting (FIG. 4D-E). […]

DYRK2 = biological target: T2, DYRK2 (Homo sapiens, UniProt Q92630); experiment: ID-8 affinity chromatography / pull-down with biotinylated ID-8, competition by free ID-8; format: binding; settings: cell lysates; competition with free ID-8
T2 construct: endogenous in cells
T2 sequence (Q92630 1-601): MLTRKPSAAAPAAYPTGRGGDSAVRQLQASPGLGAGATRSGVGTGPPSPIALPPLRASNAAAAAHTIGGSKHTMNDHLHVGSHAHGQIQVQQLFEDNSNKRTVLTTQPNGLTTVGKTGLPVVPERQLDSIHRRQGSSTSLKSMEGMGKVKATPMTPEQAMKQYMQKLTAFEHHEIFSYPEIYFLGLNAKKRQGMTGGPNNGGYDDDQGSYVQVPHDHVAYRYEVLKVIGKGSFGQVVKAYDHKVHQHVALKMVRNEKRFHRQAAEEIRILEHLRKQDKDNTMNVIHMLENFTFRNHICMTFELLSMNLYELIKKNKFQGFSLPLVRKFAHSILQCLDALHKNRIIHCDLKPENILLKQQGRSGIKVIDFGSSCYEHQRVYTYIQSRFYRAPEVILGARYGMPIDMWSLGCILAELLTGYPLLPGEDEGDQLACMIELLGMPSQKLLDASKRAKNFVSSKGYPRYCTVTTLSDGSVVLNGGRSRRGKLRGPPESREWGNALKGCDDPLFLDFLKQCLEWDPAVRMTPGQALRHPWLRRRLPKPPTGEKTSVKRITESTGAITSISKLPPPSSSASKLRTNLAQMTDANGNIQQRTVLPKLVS
Procedure: as §3, §4, §5, §6

Cc1c[nH]c(-c2cnc(NCCNc3ccc(C#N)cn3)nc2-c2ccc(Cl)cc2Cl)n1 [CHIR90021]
maintenance of hESCs, Wnt ligand replaced by GSK-3 inhibitor (hESC [1]; 0.2 μM plus bFGF): could maintain hESCs

O=C1[C@H](Cc2ccc(O)cc2)N2C(=O)CCN(C(=O)NCc3ccccc3)[C@H]2CN1Cc1cccc2ccccc12 [ICG-001]
effect on hESC survival, self-renewal and differentiation (HES2 cells): strongly induced cell differentiation and death

O=C1Cc2c([nH]c3ccc(Br)cc23)-c2ccccc2N1 [Kenpaullone]
maintenance of hESCs, Wnt ligand replaced by GSK-3 inhibitor (hESC [1]; 0.5 μM plus bFGF): could maintain hESCs
maintenance of hESCs, Wnt ligand replaced by GSK-3 inhibitor (hESC [1]; 1.0 μM plus bFGF): could maintain hESCs
maintenance of hESCs, Wnt ligand replaced by GSK-3 inhibitor (hESC [1]; 1.0 μM without bFGF): could maintain hESCs

Echistatin
colony detachment and passage of hESC (hESC [2]): effectively caused colony detachment

bFGF: basic fibroblast growth factor, recombinant FGF2 (Peprotech)
hESC morphology and proliferation (hESC [1]; bFGF removed from minimal medium): proliferation was significantly diminished

CC(=O)c1ccc(NN=C(C(N)=O)C2=NC(C)(C)Cc3ccccc32)cc1 [IQ-1]
effect on Wnt-induced differentiation (HES2 cells; in presence of Wnt3a, MEF-CM): somewhat prevented Wnt-induced differentiation
effect on hESC survival, self-renewal and differentiation (HES2 cells): did not significantly affect hESC self-renewal by itself

COc1ccc(-n2c(C)c([N+](=O)[O-])c3ccc(O)cc32)cc1 [ID-8]
DYRK4 in proteins precipitated with biotinylated ID-8 (DYRK4): identified not only DYRK2 but also DYRK4
replating efficiency (colony number/seeded cell number), hESC survival (HES2 cells; ID-8 at 0.5 μM, single cells on Matrigel in MEF-CM, control ~0.6%): ~1.1%
binding of DYRK2 to ID-8 affinity column (DYRK2): competed away by free ID-8
maintenance of hESC colonies (hESC [1]; minimal medium (DMEM/F-12, bFGF, Wnt3a, ITS) without ID-8): no colonies were maintained

B1: Wnt3a: canonical Wnt ligand protein, purified in the laboratory or purchased from Peprotech (protein, UniProt P56704 19-352, looked up)
Protein Wnt-3a: SYPIWWSLAVGPQYSSLGSQPILCASIPGLVPKQLRFCRNYVEIMPSVAEGIKIGIQECQHQFRGRRWNCTTVHDSLAIFGPVLDKATRESAFVHAIASAGVAFAVTRSCAEGTAAICGCSSRHQGSPGKGWKWGGCSEDIEFGGMVSREFADARENRPDARSAMNRHNNEAGRQAIASHMHLKCKCHGLSGSCEVKTCWWSQPDFRAIGDFLKDKYDSASEMVVEKHRESRGWVETLRPRYTYFKVPTERDLVYYEASPNFCEPNPETGSFGTRDRTCNVSSHGIDGCDLLCCGRGHNARAERRREKCRCVFHWCCYVSCQECTRVYDVHTCK
replating efficiency (colony number/seeded cell number) (HES2 cells; Wnt3a at 100 ng/ml, single cells on Matrigel in MEF-CM, control ~0.6%): ~1%
effect on hESC survival, self-renewal and differentiation (HES2 cells): enhances hESC survival and proliferation but also induces differentiation
